Columns and labels:
Experiment in all cases: Post-emergent Test III, herbicidal activity in wheat and barley
Assay type in all cases: in vivo
[1] = tested on: TRZSS: wheat, including spring and winter (Triticum aestivum); details: 21 days after application; for GR20 TRZSS: probit analysis, dose for 20 percent growth reduction (crop); for pest or weed control at 35 g/ha: 35 g ai/ha; for pest or weed control at 70 g/ha: 70 g ai/ha
Procedure, shortened: (§1)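 Plants at the second to third true-leaf stage, grown in a greenhouse at about 18/17 °C with a 14 h photoperiod, were sprayed post-emergence at 187 L/ha with the high rate and ½× to 1/16× serial dilutions in an acetone/DMSO/crop-oil/surfactant carrier. Injury was rated visually at 21 d on a 0–100% scale, and GR20–GR90 were derived by probit analysis.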

[2] = tested on: HORSS: barley, including spring and winter (Hordeum vulgare); details: 21 days after application; for GR20 HORSS: probit analysis, dose for 20 percent growth reduction (crop); for pest or weed control at 35 g/ha: 35 g ai/ha; for pest or weed control at 70 g/ha: 70 g ai/ha
Procedure, shortened: as §1

[3] = tested on: MATSS: scented mayweed (Matricaria chamomilla), pineappleweed (Matricaria matricarioides); details: 21 days after application; for GR50 MATSS / GR80 MATSS: probit analysis; for GR50 MATSS: dose for 50 percent growth reduction; for GR80 MATSS: dose for 80 percent growth reduction; for pest or weed control at 35 g/ha: 35 g ai/ha; for pest or weed control at 70 g/ha: 70 g ai/ha
Procedure, shortened: as §1

[4] = tested on: VERPE: bird's-eye speedwell (veronica persica); details: 21 days after application; for GR50 VERPE / GR80 VERPE: probit analysis; for GR50 VERPE: dose for 50 percent growth reduction; for GR80 VERPE: dose for 80 percent growth reduction; for pest or weed control at 35 g/ha: 35 g ai/ha; for pest or weed control at 70 g/ha: 70 g ai/ha
Procedure, shortened: as §1

[5] = tested on: SASKR: Russian thistle (Salsola iberica); details: 21 days after application; for GR50 SASKR / GR80 SASKR: probit analysis; for GR50 SASKR: dose for 50 percent growth reduction; for GR80 SASKR: dose for 80 percent growth reduction; for pest or weed control at 35 g/ha: 35 g ai/ha; for pest or weed control at 70 g/ha: 70 g ai/ha
Procedure, shortened: as §1

[6] = tested on: KCHSC: kochia (Kochia scoparia); details: 21 days after application; for GR50 KCHSC / GR80 KCHSC: probit analysis; for GR50 KCHSC: dose for 50 percent growth reduction; for GR80 KCHSC: dose for 80 percent growth reduction; for pest or weed control at 35 g/ha: 35 g ai/ha; for pest or weed control at 70 g/ha: 70 g ai/ha
Procedure, shortened: as §1

[7] = tested on: VIOSS: wild pansy (Viola tricolor), field violet (Viola arvensis); details: 21 days after application; for GR50 VIOSS / GR80 VIOSS: probit analysis; for GR50 VIOSS: dose for 50 percent growth reduction; for GR80 VIOSS: dose for 80 percent growth reduction; for pest or weed control at 35 g/ha: 35 g ai/ha; for pest or weed control at 70 g/ha: 70 g ai/ha
Procedure, shortened: as §1

[8] = Triticum aestivum, post-emergence, 504 h, read-out: Visual Gorowth Reduction (%) 21 days After Application TRZSS
[9] = Hordeum vulgare, post-emergence, 504 h, read-out: Visual Gorowth Reduction (%) 21 days After Application HORSS
[10] = Matricaria chamomilla, post-emergence, 504 h, read-out: Visual Gorowth Reduction (%) 21 days After Application MATSS
[11] = Veronica persica, post-emergence, 504 h, read-out: Visual Gorowth Reduction (%) 21 days After Application VERPE
[12] = Salsola tragus, post-emergence, 504 h, read-out: Visual Gorowth Reduction (%) 21 days After Application SASKR
[13] = Bassia scoparia, post-emergence, 504 h, read-out: Visual Gorowth Reduction (%) 21 days After Application KCHSC
[14] = Viola tricolor, post-emergence, 504 h, read-out: Visual Gorowth Reduction (%) 21 days After Application VIOSS

Nc1c(F)c(-c2ccc(I)cc2F)nc(C(=O)O)c1Cl [Compound 169]
pest or weed control at 37.1 g/ha ([1]; Triticum aestivum, post-emergence, 504 h, 37.1 g ai/ha, read-out: Visual Gorowth Reduction (%) 21 days After Application TRZSS): 75 to 84%
pest or weed control at 74.3 g/ha ([1]; Triticum aestivum, post-emergence, 504 h, 74.3 g ai/ha, read-out: Visual Gorowth Reduction (%) 21 days After Application TRZSS): 85 to 94%
pest or weed control at 149 g/ha ([1]; Triticum aestivum, post-emergence, 504 h, 149 g ai/ha, read-out: Visual Gorowth Reduction (%) 21 days After Application TRZSS): 85 to 94%
GR20 TRZSS [1]: 1 g ai/ha
pest or weed control at 37.1 g/ha ([2]; Hordeum vulgare, post-emergence, 504 h, 37.1 g ai/ha, read-out: Visual Gorowth Reduction (%) 21 days After Application HORSS): 95 to 100%
pest or weed control at 74.3 g/ha ([2]; Hordeum vulgare, post-emergence, 504 h, 74.3 g ai/ha, read-out: Visual Gorowth Reduction (%) 21 days After Application HORSS): 95 to 100%
pest or weed control at 149 g/ha ([2]; Hordeum vulgare, post-emergence, 504 h, 149 g ai/ha, read-out: Visual Gorowth Reduction (%) 21 days After Application HORSS): 95 to 100%
GR20 HORSS [2]: 1 g ai/ha
pest or weed control at 37.1 g/ha ([3]; Matricaria chamomilla, post-emergence, 504 h, 37.1 g ai/ha, read-out: Visual Gorowth Reduction (%) 21 days After Application MATSS): 75 to 84%
pest or weed control at 74.3 g/ha ([3]; Matricaria chamomilla, post-emergence, 504 h, 74.3 g ai/ha, read-out: Visual Gorowth Reduction (%) 21 days After Application MATSS): 95 to 100%
pest or weed control at 149 g/ha ([3]; Matricaria chamomilla, post-emergence, 504 h, 149 g ai/ha, read-out: Visual Gorowth Reduction (%) 21 days After Application MATSS): 95 to 100%
GR50 MATSS [3]: 15 g ai/ha
GR80 MATSS [3]: 35 g ai/ha
pest or weed control at 37.1 g/ha ([4]; Veronica persica, post-emergence, 504 h, 37.1 g ai/ha, read-out: Visual Gorowth Reduction (%) 21 days After Application VERPE): 85 to 94%
pest or weed control at 74.3 g/ha ([4]; Veronica persica, post-emergence, 504 h, 74.3 g ai/ha, read-out: Visual Gorowth Reduction (%) 21 days After Application VERPE): 95 to 100%
pest or weed control at 149 g/ha ([4]; Veronica persica, post-emergence, 504 h, 149 g ai/ha, read-out: Visual Gorowth Reduction (%) 21 days After Application VERPE): 95 to 100%
GR50 VERPE [4]: 19 g ai/ha
GR80 VERPE [4]: 37 g ai/ha
pest or weed control at 37.1 g/ha ([5]; Salsola tragus, post-emergence, 504 h, 37.1 g ai/ha, read-out: Visual Gorowth Reduction (%) 21 days After Application SASKR): 60 to 74%
pest or weed control at 74.3 g/ha ([5]; Salsola tragus, post-emergence, 504 h, 74.3 g ai/ha, read-out: Visual Gorowth Reduction (%) 21 days After Application SASKR): 75 to 84%
pest or weed control at 149 g/ha ([5]; Salsola tragus, post-emergence, 504 h, 149 g ai/ha, read-out: Visual Gorowth Reduction (%) 21 days After Application SASKR): 85 to 94%
GR50 SASKR [5]: 5 g ai/ha
GR80 SASKR [5]: 83 g ai/ha
pest or weed control at 37.1 g/ha ([6]; Bassia scoparia, post-emergence, 504 h, 37.1 g ai/ha, read-out: Visual Gorowth Reduction (%) 21 days After Application KCHSC): 60 to 74%
pest or weed control at 74.3 g/ha ([6]; Bassia scoparia, post-emergence, 504 h, 74.3 g ai/ha, read-out: Visual Gorowth Reduction (%) 21 days After Application KCHSC): 85 to 94%
pest or weed control at 149 g/ha ([6]; Bassia scoparia, post-emergence, 504 h, 149 g ai/ha, read-out: Visual Gorowth Reduction (%) 21 days After Application KCHSC): 85 to 94%
GR50 KCHSC [6]: 8 g ai/ha
GR80 KCHSC [6]: 72 g ai/ha
pest or weed control at 37.1 g/ha ([7]; Viola tricolor, post-emergence, 504 h, 37.1 g ai/ha, read-out: Visual Gorowth Reduction (%) 21 days After Application VIOSS): 75 to 84%
pest or weed control at 74.3 g/ha ([7]; Viola tricolor, post-emergence, 504 h, 74.3 g ai/ha, read-out: Visual Gorowth Reduction (%) 21 days After Application VIOSS): 95 to 100%
pest or weed control at 149 g/ha ([7]; Viola tricolor, post-emergence, 504 h, 149 g ai/ha, read-out: Visual Gorowth Reduction (%) 21 days After Application VIOSS): 95 to 100%
GR50 VIOSS [7]: 21 g ai/ha
GR80 VIOSS [7]: 36 g ai/ha

COc1c(N)nc(-c2ccc(Br)c(F)c2F)nc1C(=O)O [Compound 8]
pest or weed control at 35 g/ha [1, 8]: 75 to 84%
pest or weed control at 70 g/ha [1, 8]: 85 to 94%
GR20 TRZSS [1]: 1 g ai/ha
pest or weed control at 35 g/ha [2, 9]: 60 to 74%
pest or weed control at 70 g/ha [2, 9]: 75 to 84%
GR20 HORSS [2]: 1 g ai/ha
pest or weed control at 35 g/ha [3, 10]: 60 to 74%
pest or weed control at 70 g/ha [3, 10]: 75 to 84%
GR50 MATSS [3]: 26 g ai/ha
GR80 MATSS [3]: 73 g ai/ha
pest or weed control at 35 g/ha [4, 11]: 95 to 100%
pest or weed control at 70 g/ha [4, 11]: 95 to 100%
GR50 VERPE [4]: 1 g ai/ha
GR80 VERPE [4]: 1 g ai/ha
pest or weed control at 35 g/ha [5, 12]: 85 to 94%
pest or weed control at 70 g/ha [5, 12]: 85 to 94%
GR50 SASKR [5]: 1 g ai/ha
GR80 SASKR [5]: 16 g ai/ha
pest or weed control at 35 g/ha [6, 13]: 95 to 100%
pest or weed control at 70 g/ha [6, 13]: 95 to 100%
GR50 KCHSC [6]: 3 g ai/ha
GR80 KCHSC [6]: 6 g ai/ha
pest or weed control at 35 g/ha [7, 14]: 85 to 94%
pest or weed control at 70 g/ha [7, 14]: 85 to 94%
GR50 VIOSS [7]: 13 g ai/ha
GR80 VIOSS [7]: 28 g ai/ha

Nc1c(F)c(-c2ccc(I)c(F)c2)nc(C(=O)O)c1Cl [Compound 157]
pest or weed control at 35 g/ha [1, 8]: 75 to 84%
pest or weed control at 70 g/ha [1, 8]: 75 to 84%
GR20 TRZSS [1]: 1 g ai/ha
pest or weed control at 35 g/ha [2, 9]: 85 to 94%
pest or weed control at 70 g/ha [2, 9]: 95 to 100%
GR20 HORSS [2]: 1 g ai/ha
pest or weed control at 35 g/ha [3, 10]: 60 to 74%
pest or weed control at 70 g/ha [3, 10]: 75 to 84%
GR50 MATSS [3]: 21 g ai/ha
GR80 MATSS [3]: 64 g ai/ha
pest or weed control at 35 g/ha [4, 11]: 30 to 44%
pest or weed control at 70 g/ha [4, 11]: 60 to 74%
GR50 VERPE [4]: 50 g ai/ha
GR80 VERPE [4]: >140 g ai/ha
pest or weed control at 35 g/ha [5, 12]: 75 to 84%
pest or weed control at 70 g/ha [5, 12]: 85 to 94%
GR50 SASKR [5]: 11 g ai/ha
GR80 SASKR [5]: 34 g ai/ha
pest or weed control at 35 g/ha [6, 13]: 85 to 94%
pest or weed control at 70 g/ha [6, 13]: 85 to 94%
GR50 KCHSC [6]: 6 g ai/ha
GR80 KCHSC [6]: 18 g ai/ha
pest or weed control at 35 g/ha [7, 14]: 95 to 100%
pest or weed control at 70 g/ha [7, 14]: 95 to 100%
GR50 VIOSS [7]: 1 g ai/ha
GR80 VIOSS [7]: 4 g ai/ha
